Numbered stars: 1 amine (or outer) side, 2 acyl side, 3 side chain; on linkers, the order of the positions; unused ones are H or OH. Square brackets hold non-standard residues; d marks the D form. Peptide text beside a SMILES is read from it. * marks the point of attachment. ξ: configuration not given here. 4Abz = Nc1ccc(C(=O)O)cc1; CO = O=C([*:1])[*:2]; ξV = CC(C)C(N)C(=O)O; CF3 = FC(F)(F)*
Assays:
[1] = test system: human sputum elastase-induced lung hemorrhage in hamsters; assay: Elastase-induced lung hemorrhage (hemoglobin in BAL cells, OD 541 nm); format: in vivo, hamster; conditions: for Hemorrhage (OD541nm) / % inhibition of lung hemorrhage: 5 min before elastase; for Hemorrhage (OD541nm): BAL 3 h later; for ED50, inhibition of lung hemorrhage: intratracheal, 5 min pre-dose
[2] = test system: HSE-induced paw edema in C57BL mice; assay: Human sputum elastase-induced mouse paw edema; format: in vivo; conditions: for Footpad thickness (difference right-left hind paw): 15 min before HSE 20 μg/site, measured 2 h after HSE
[3] = test system: PPE-induced emphysema in Golden Syrian hamsters; assay: Experimentally induced (porcine pancreatic elastase) emphysema in hamsters, lung mechanics; format: in vivo, hamster; conditions: for Cst (quasi-static lung compliance) / VC (vital capacity): 5 min before PPE 100 μg/site, 3 weeks later
[4] = 1 μg/site intratracheal, listed as 13
[5] = 10 μg/site intratracheal, listed as 13
[6] = 100 μg/site intratracheal, listed as 13
[7] = 1 μg/site intratracheal, listed as 19
[8] = 10 μg/site intratracheal, listed as 19
[9] = 100 μg/site intratracheal, listed as 19

CC(C)C(NC(=O)[C@@H]1CCCN1C(=O)[C@@H](NC(=O)c1ccc(C(=O)NCC(=O)O)cc1)C(C)C)C(=O)C(F)(F)F (stereo partly drawn) [实施例13, 3(RS)-[[4-(羧基甲基氨基羰基)苯基羰基]-L-缬氨酰基-L-脯氨酰基]氨基-1，1，1-三氟-4-甲基-2-氧代戊烷]
Hemorrhage (OD541nm) [1, 4]: 11.63±1.99 OD541nm | % inhibition of lung hemorrhage [1, 4]: 21.6% | Hemorrhage (OD541nm) [1, 5]: 4.217±1.02 OD541nm | % inhibition of lung hemorrhage [1, 5]: 74.5% | Hemorrhage (OD541nm) [1, 6]: 0.6384±0.222 OD541nm | % inhibition of lung hemorrhage [1, 6]: 100.0% | ED50, inhibition of lung hemorrhage ([1]; listed as 13): 3.0 μg/位点

CC(C)C(NC(=O)[C@@H]1CCCN1C(=O)[C@@H](NC(=O)c1ccc(C(=O)NCC(=O)O)cc1)C(C)C)C(=O)C(F)(F)F (stereo partly drawn) [实施例19, 3(RS)-[[4-(羧甲基氨基羰基)苯基羰基]-L-缬氨酰基-L-脯氨酰基]氨基-1，1，1-三氟-4-甲基-2-氧代戊烷]
Hemorrhage (OD541nm) [1, 7]: 11.59±1.40 OD541nm | % inhibition of lung hemorrhage [1, 7]: 10.8% | Hemorrhage (OD541nm) [1, 8]: 1.663±0.690 OD541nm | % inhibition of lung hemorrhage [1, 8]: 93.1% | Hemorrhage (OD541nm) [1, 9]: 0.2141±0.020 OD541nm | % inhibition of lung hemorrhage [1, 9]: 105.2% | ED50, inhibition of lung hemorrhage ([1]; listed as 19): 2.4 μg/位点 | % inhibition of paw edema ([2]; 1 mg/Kg s.c.): 6.4% | Footpad thickness (difference right-left hind paw) ([2]; 1 mg/Kg s.c.): 43.8±5.67 ×10-2mm | % inhibition of paw edema ([2]; 10 mg/Kg s.c.): 20.9% | Footpad thickness (difference right-left hind paw) ([2]; 10 mg/Kg s.c.): 37.0±13.41 ×10-2mm | % inhibition of paw edema ([2]; 100 mg/Kg s.c.): 42.3% | Footpad thickness (difference right-left hind paw) ([2]; 100 mg/Kg s.c.): 27.0±4.66 ×10-2mm | Cst, % inhibition ([3]; 1 μg/site intratracheal): 15% | VC, % inhibition ([3]; 1 μg/site intratracheal): 12% | Cst (quasi-static lung compliance) ([3]; 1 μg/site intratracheal): 1.39±0.05 ml/cm H2O | VC (vital capacity) ([3]; 1 μg/site intratracheal): 7.0 ± 0.1 mL | Cst, % inhibition ([3]; 10 μg/site intratracheal): 84% | VC, % inhibition ([3]; 10 μg/site intratracheal): 65% | Cst (quasi-static lung compliance) ([3]; 10 μg/site intratracheal): 0.70±0.04 ml/cm H2O | VC (vital capacity) ([3]; 10 μg/site intratracheal): 5.8 ± 0.1 mL | Cst, % inhibition ([3]; 100 μg/site intratracheal): 100% | VC, % inhibition ([3]; 100 μg/site intratracheal): 97% | Cst (quasi-static lung compliance) ([3]; 100 μg/site intratracheal): 0.53±0.02 ml/cm H2O | VC (vital capacity) ([3]; 100 μg/site intratracheal): 5.0 ± 0.1 mL | Potency compared with prior-art compounds by Cst and VC (in words) ([3]; based on Cst and VC values): 效力优于先有技术化合物A和B | Effect of pretreatment on PPE-induced increase in lung mechanics (in words) ([3]; dose-related, intratracheal pretreatment): 防止了PPE诱发的肺力学增加

CC(C)C(NC(=O)[C@@H]1CCCN1C(=O)[C@@H](NC(=O)c1ccc(C(=O)NCCN2CCOCC2)cc1)C(C)C)C(=O)C(F)(F)F.Cl (stereo partly drawn) [实施例21, 3(RS)-[[4-[[2-(4-吗啉代)乙基]氨基羰基]苯基羰基]-L-缬氨酰基-L-脯氨酰基]氨基-1，1，1-三氟-4-甲基-2-氧代戊烷盐酸盐]
% inhibition of lung hemorrhage ([1]; 1 μg/site intratracheal): 13.6% | Hemorrhage (OD541nm) ([1]; 1 μg/site intratracheal): 12.76±1.11 OD541nm | % inhibition of lung hemorrhage ([1]; 10 μg/site intratracheal): 66.3% | Hemorrhage (OD541nm) ([1]; 10 μg/site intratracheal): 5.372±2.06 OD541nm | % inhibition of lung hemorrhage ([1]; 100 μg/site intratracheal): 100.0% | Hemorrhage (OD541nm) ([1]; 100 μg/site intratracheal): 0.6476±0.129 OD541nm | ED50, inhibition of lung hemorrhage [1]: 4.5 μg/位点

CC(C)C(NC(=O)[C@@H]1CCCN1C(=O)[C@@H](NC(=O)Nc1ccc(C(=O)NCC(=O)O)cc1)C(C)C)C(=O)C(F)(F)F (stereo partly drawn) [实施例23, 3(RS)-[[4-(羧甲基氨基羰基)苯基氨基羰基]-L-缬氨酰基-L-脯氨酰基]氨基-1，1，1-三氟-2-氧代-4-甲基戊烷] ({Gly-4Abz-CO}-Val-Pro-[ξV]-CF3)
% inhibition of lung hemorrhage ([1]; 1 μg/site intratracheal): 16.0% | Hemorrhage (OD541nm) ([1]; 1 μg/site intratracheal): 9.435±0.941 OD541nm | % inhibition of lung hemorrhage ([1]; 10 μg/site intratracheal): 75.6% | Hemorrhage (OD541nm) ([1]; 10 μg/site intratracheal): 3.412±1.31 OD541nm | % inhibition of lung hemorrhage ([1]; 100 μg/site intratracheal): 102.1% | Hemorrhage (OD541nm) ([1]; 100 μg/site intratracheal): 0.7258±0.303 OD541nm | ED50, inhibition of lung hemorrhage [1]: 3.2 μg/位点

CC(C)C(NC(=O)CN(C(=O)[C@@H](NC(=O)c1ccc(C(=O)NCC(=O)[O-])cc1)C(C)C)C1Cc2ccccc2C1)C(=O)C(F)(F)F.[Na+] (stereo partly drawn) [实施例27, 3(RS)-[[4-(羧甲基氨基羰基)苯基羰基]-L-缬氨酰基-N-(2-二氢化茚基)甘氨酰基]氨基-1，1，1-三氟-4-甲基-2-氧代戊烷钠盐]
% inhibition of lung hemorrhage ([1]; 1 μg/site intratracheal): 24.8% | Hemorrhage (OD541nm) ([1]; 1 μg/site intratracheal): 10.68±1.25 OD541nm | % inhibition of lung hemorrhage ([1]; 10 μg/site intratracheal): 66.9% | Hemorrhage (OD541nm) ([1]; 10 μg/site intratracheal): 4.878±0.917 OD541nm | % inhibition of lung hemorrhage ([1]; 100 μg/site intratracheal): 99.8% | Hemorrhage (OD541nm) ([1]; 100 μg/site intratracheal): 0.3451±0.084 OD541nm | ED50, inhibition of lung hemorrhage [1]: 3.7 μg/位点

CC(C)C(NC(=O)CN(C(=O)[C@@H](NC(=O)c1ccc(C(=O)NCCN2CCOCC2)cc1)C(C)C)C1Cc2ccccc2C1)C(=O)C(F)(F)F.Cl (stereo partly drawn) [实施例29, 3(RS)-[[4-[[2-(4-吗啉代)乙基]氨基羰基]苯基羰基]-L-缬氨酰基-N-(2-二氢化茚基)甘氨酰基]氨基-1，1，1-三氟-4-甲基-2-氧代戊烷的盐酸盐]
% inhibition of lung hemorrhage ([1]; 1 μg/site intratracheal): 14.9% | Hemorrhage (OD541nm) ([1]; 1 μg/site intratracheal): 12.05±1.95 OD541nm | % inhibition of lung hemorrhage ([1]; 10 μg/site intratracheal): 43.2% | Hemorrhage (OD541nm) ([1]; 10 μg/site intratracheal): 8.155±1.76 OD541nm | % inhibition of lung hemorrhage ([1]; 100 μg/site intratracheal): 69.4% | Hemorrhage (OD541nm) ([1]; 100 μg/site intratracheal): 4.545±1.49 OD541nm | ED50, inhibition of lung hemorrhage [1]: 17.9 μg/位点

— patent publication CN1063108A, “三氟甲基酮衍生物及其制备方法和用途” (Fujisawa Pharmaceutical Co Ltd, priority 1990, dated 1992)
